The record followed here is patent publication US9079915B2, “Thienyl- and furanyl-isoquinolinones and methods for using them” (priority 2008, dated 2015).

Bounds are passed on as bounds.

Series [1] concerns the target T1, hrPARP-1 (human recombinant, Trevigen) (Homo sapiens, UniProt P09874).
T1 construct: purchased Trevigen
In words: Functional assessment of human PARP-1 enzymatic activity. The series is classed as biochemical. As to conditions: 1 U hrPARP-1, 15 μg/mL activated DNA, 5 μM NAD+, 20 min room temperature. The method, then:
Functional Assessment of Human PARP-1 Enzymatic Activity
hrPARP-1 (human recombinant, Trevigen), Activated DNA (Sigma), 6(5H)-phenanthridinone (PND), (Sigma), NAD+ (Calbiochem), PARP-1 assay buffer (50 mM Tris, 2 mM MgCl2, pH 8.0), 20% acetophenone in EtOH, 2 M KOH
88% formic acid, 110° C. oven, Flexstation Plate Reader.
Compound plates were prepared by making a series of 1:3 dilutions for each tested compound, 10 steps of each at 20 μL in DMSO starting from a concentration of 5 mM. NAD^+ (39 μL of a 6.4 μM solution) were added to each well of a 96-well flat bottom fluorescent assay plate. Test compound (1 μL) was added to each well. To initiate the reaction, 10 μL of PARP (contains 5 U of PARP and 75 μg/mL activated DNA) was added with a final 1 U hrPARP-1, 15 μg/mL activated DNA and 5 μM of NAD^+. The highest concentration used for test compounds was 100 μM. The plates were incubated at room temperature on a shaker. After 20 min, 20 μL of 2 M KOH and 20 μL of 20% acetophenone were added. The plate was incubated 10 min. at 4° C., and 90 μL of 88% formic acid was added. After incubating in an 110° C. oven for 5 min, the plate was cooled to room temperature and read of a Flexstation Plate Reader (excitation at 360 nm, emission at 445 nm).
LSW data analysis software was used to generate PARP-1 IC50s.

Series [2] in a line: MDCK permeability assay (efflux ratio). In kind it is in vitro ADME, Canine. Particulars: dog, MDCK-MDR1, pH 7.4, MDR-MDCK cells, 37° C., Papp(B-A)/Papp(A-B). The method, then:
1. MDCK Permeability Assay
Multi Drug Resistance-Madin-Darby Canine Kidney (MDR-MDCK) cells were obtained from NIH (Bethesda, Md., USA). Cells were plated on Costar 3401 Transwell 12 well, 12 mm diameter, 0.4 um pore size plates (Costar, Mass., USA) and cultured for at least 6 days prior to the transport assay. The cells were carefully pre-washed with Hank's balanced salt solution containing 10 mM HEPES and 15 mM D-glucose at pH 7.4, which was also used as the assay buffer. The test compounds were dosed on the apical side (A-B) or the basolateral side (B-A) with 0.2 mM Lucifer Yellow (500 μL into apical side, 1500 μL into basolateral side). The test compounds in the apical or basolateral chambers were at an initial concentration of 10 μM. The plates were incubated at 37° C. with 5% CO2 and 90% relative humidity for 2 hours. One hundred microliters of receiver solution (basolateral side for A-B transport experiment, apical side for B-A transport experiment) was transferred to a 96 well plate for LC-MS-MS quantization of the test compound concentration and fluorometer quantization of Lucifer Yellow.
Quality control compounds and TEER measurements were run to assure proper operation of the assay (see Table 2). The TEER values of each well use for the assay should be ≧1400 ohm·cm^2.

Series [3] is described as follows: Microsomal stability, rat liver microsomes. The series is classed as in vitro ADME. As to conditions: 0.5 mg/mL protein. How it is done:
(§1) The assay protocol was described in Summerfield S G, Read K, Begley D J, Obradovic T, Hidalgo I J, Coggon S, Lewis A V, Porter R A, Jeffrey P 2007. Central Nervous System Drug Disposition: The Relationship between in Situ Brain Permeability and Brain Free Fraction. J Pharmacol Exp Ther, 322(1):205-213; and Li Di, E. Kerns, S. Li, S. Petusky, “High Throughput Metabolic Stability Assay for Insoluble Compounds”, Int. J. Pharm., 317, 54-60, 2006.
(§2) The samples were incubated with liver microsomes from rat, mouse, and human at 1 μM at microsomal protein concentration of 0.5 mg/mL at 37° C. in the presence of NADPH cofactor. At both time 0 and 15 minutes incubation, cold acetonitrile was added to the wells to stop the reaction. The solution was centrifuged and the supernatants were analyzed using LC-MS-MS. “Phase I” represents Phase I metabolism-oxidative metabolism by microsomes and “Phase II” represents Phase I oxidative metabolism (stated above) plus cofactors added that allow for Phase II (non-oxidative, conjugative) metabolism to take place.
In general terms: Microsomes from liver hold many membrane-bound enzymes, among them those of drug oxidation.

Series [4] can be described thus: Microsomal stability, C57 mouse liver microsomes. The series is classed as in vitro ADME. As to conditions: 0.5 mg/mL protein. The method, then: as §1, §2
Series [5] in a line: Microsomal stability, human liver microsomes. As to conditions: 0.5 mg/mL protein. The series is classed as in vitro ADME. The method, then: as §1, §2
Series [6] can be described thus: Brain (B)-Plasma (P) dialysis. In kind it is in vitro ADME. As to conditions: for Kp at 5 h, 10 μM: diluted plasma or brain homogenate vs PBS, 37° C., read-out: Brain-Plasma Dialysis B/P Ratio; for B/P ratio divided by MDCK efflux ratio at 10 μM: read-out: Brain-Plasma Dialysis B/P/efflux ratio (ER). How it is done: 2. Brain (B)-Plasma (P) Dialysis
DMSO stock solution of 1 mM was prepared and 10 μL was added to 990 uL plasma (1 plasma:3 PBS) or brain homogeneous (1 brain:12 PBS). The final concentration was 10 μM test compound with 1% DMSO. The dialysis was setup with 200 uL PBS vs. 200 uL diluted plasma or diluted brain homogenates with test compounds. The dialysis plate was incubated at 37° C., 70 RPM for 5 hours. At the end of the incubation, 150 μL PBS, 50 uL plasma and 50 uL of brain homogenates were sampled from the dialysis device. Each of the samples was matched with PBS, plasma and brain homogenates to give consistent matrix material. Cold acetonitrile of 300 μL was added to the sample to precipitate the proteins and tissues. The solutions were centrifuged and the supernatants were transferred for LC-MS-MS analysis. Four replicates were preformed for each test compound. Data was calculated according to Summerfield S G, Read K, Begley D J, Obradovic T, Hidalgo I J, Coggon S, Lewis A V, Porter R A, Jeffrey P 2007. Central Nervous System Drug Disposition: The Relationship between in Situ Brain Permeability and Brain Free Fraction.

Setting [7] is: NADPH, Phase I, read-out: Microsomal Stability Rat Phase I t1/2.
Setting [8] is: Phase I plus Phase II cofactors, read-out: Microsomal Stability Rat Phase I & II t1/2.
Where [9] appears, read: NADPH, Phase I, read-out: Microsomal Stability C57 Mouse Phase I t1/2.
Setting [10] is: Phase I plus Phase II cofactors, read-out: Microsomal Stability C57 Mouse Phase I & II t1/2.
Setting [11] is: NADPH, Phase I, read-out: Microsomal Stability Human Phase I t1/2.
The mark [12] stands for this setting: Phase I plus Phase II cofactors, read-out: Microsomal Stability Human Phase I & II t1/2.

As usually defined, the IC50 is the point on the concentration scale where inhibition reaches its midpoint. In general, melting point refers to the temperature, or range, at which the solid turns liquid. The term efflux ratio denotes the permeability from basolateral to apical divided by that in the opposite direction, in the common usage.

T1 sequence (P09874 whole entry): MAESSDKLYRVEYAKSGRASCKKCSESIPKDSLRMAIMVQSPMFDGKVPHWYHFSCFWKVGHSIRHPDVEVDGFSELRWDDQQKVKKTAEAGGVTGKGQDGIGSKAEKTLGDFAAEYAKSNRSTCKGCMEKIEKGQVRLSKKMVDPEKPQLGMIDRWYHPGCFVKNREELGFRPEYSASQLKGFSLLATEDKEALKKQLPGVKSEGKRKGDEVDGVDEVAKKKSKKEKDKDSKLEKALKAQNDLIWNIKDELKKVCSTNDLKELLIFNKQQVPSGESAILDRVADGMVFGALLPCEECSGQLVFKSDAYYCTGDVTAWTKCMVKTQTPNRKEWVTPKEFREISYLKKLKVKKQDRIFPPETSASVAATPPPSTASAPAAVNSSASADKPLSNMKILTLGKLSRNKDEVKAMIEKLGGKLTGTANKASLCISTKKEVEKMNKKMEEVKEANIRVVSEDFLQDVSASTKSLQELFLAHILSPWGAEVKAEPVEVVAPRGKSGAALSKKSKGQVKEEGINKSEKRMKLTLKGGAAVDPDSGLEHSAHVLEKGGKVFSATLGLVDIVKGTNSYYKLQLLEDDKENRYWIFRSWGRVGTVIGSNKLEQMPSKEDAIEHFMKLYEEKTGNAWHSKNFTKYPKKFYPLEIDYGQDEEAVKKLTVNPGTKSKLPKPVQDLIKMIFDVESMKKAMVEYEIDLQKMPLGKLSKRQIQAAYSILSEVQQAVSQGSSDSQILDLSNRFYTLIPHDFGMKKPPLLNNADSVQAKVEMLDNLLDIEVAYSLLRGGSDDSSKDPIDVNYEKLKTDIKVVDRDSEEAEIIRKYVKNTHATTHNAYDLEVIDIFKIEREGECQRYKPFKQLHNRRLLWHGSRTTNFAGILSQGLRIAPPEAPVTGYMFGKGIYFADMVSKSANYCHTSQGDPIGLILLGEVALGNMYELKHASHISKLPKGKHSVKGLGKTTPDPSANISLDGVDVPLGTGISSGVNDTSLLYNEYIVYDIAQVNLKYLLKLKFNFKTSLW

Take `COc1cccc2c(=O)[nH]c3sc(CN(C)C)cc3c12.Cl` [Example 1, 2-Dimethylaminomethyl-9-methoxythieno[2,3-c]isoquinolin-5(4H)-one hydrochloride]: the melting point lay in the range of 264 to 265 °C. In addition, the IC50 in series [1] was 137 nM.

Turning to `O=c1[nH]c2sc(CN3CCCC3)cc2c2c(O)cccc12` [Example 14, 9-Hydroxy-2-(pyrrolidin-1-ylmethyl)thieno[2,3-c]isoquinolin-5(4H)-one], in series [1], the IC50 worked out at 81 nM. The efflux ratio at 2 h, 10 μM in series [2] is above 20. Further, the half-life at 1 μM in series [3] (setting [7]), in series [3] (setting [8]), in series [4] (setting [9]), in series [4] (setting [10]), in series [5] (setting [11]) and in series [5] (setting [12]) was above 30 min each time. The Kp at 5 h, 10 μM in series [6] came out at 1.03. For the same molecule, the B/P ratio divided by MDCK efflux ratio at 10 μM in series [6] was below 0.05.

With `O=c1[nH]c2sc(CN3CCC(Br)CC3)cc2c2c(O)cccc12` [Example 15, 2-[(4-Bromopiperidin-1-yl)methyl]-9-hydroxythieno[2,3-c]isoquinolin-5(4H)-one], the IC50 in series [1] is 35 nM. Besides, the efflux ratio at 2 h, 10 μM in series [2] was 0.9. Further, the half-life at 1 μM is 3 min in series [3] (setting [7]); 3 min in series [3] (setting [8]); 4 min in series [4] (setting [9]); 3 min in series [4] (setting [10]); 7 min in series [5] (setting [11]); 5 min in series [5] (setting [12]). In addition, the Kp at 5 h, 10 μM in series [6] stood at 1.12. In addition, the B/P ratio divided by MDCK efflux ratio at 10 μM in series [6] was found to be 1.12.
